Reference: ChEMBL document CHEMBL1137475, “Design, synthesis, and docking studies of new 1,3,4-thiadiazole-2-thione derivatives with carbonic anhydrase inhibitory activity” (Bioorg Med Chem, 2007)

How the values were obtained:
[1] = target: Carbonic anhydrase 9 (Homo sapiens, UniProt Q16790)
[2] = target: Carbonic anhydrase 2 (Homo sapiens, UniProt P00918)
[3] = target: Carbonic anhydrase 1 (Homo sapiens, UniProt P00915)
Sequence of Carbonic anhydrase 1 (P00915 whole entry): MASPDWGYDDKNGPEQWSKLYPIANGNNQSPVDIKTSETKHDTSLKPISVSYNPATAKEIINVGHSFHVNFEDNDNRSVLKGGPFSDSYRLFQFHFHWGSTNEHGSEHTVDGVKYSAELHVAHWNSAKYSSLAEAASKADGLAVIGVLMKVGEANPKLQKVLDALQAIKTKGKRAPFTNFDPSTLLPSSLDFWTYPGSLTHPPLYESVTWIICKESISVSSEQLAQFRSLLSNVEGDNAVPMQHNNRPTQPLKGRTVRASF

Compound | Ki [1] [µM] | Ki [2] [µM] | Ki [3] [µM]
O=C(N/N=C/c1ccc(Cl)cc1)Nc1n[nH]c(=S)s1 | 118 |  | 
COc1cccc(/C=N/NC(=O)Nc2n[nH]c(=S)s2)c1 | 7.13 |  | 
CN(C)c1ccccc1/C=N/NC(=O)Nc1n[nH]c(=S)s1 | 3.35 |  | 125
C/C(=N\NC(=O)Nc1n[nH]c(=S)s1)c1ccc(O)cc1 | 21 | 350 | 
O=C(N/N=C/c1ccco1)Nc1n[nH]c(=S)s1 | 5.75 |  | 
C/C(=N\NC(=O)Nc1n[nH]c(=S)s1)c1ccc(C)cc1 | 149 |  | 
O=C(NN=C(c1ccccc1)c1ccccc1)Nc1n[nH]c(=S)s1 | 8.43 |  | 
COc1ccc(/C=N/NC(=O)Nc2n[nH]c(=S)s2)cc1 | 24 | 350 | 
O=C(N/N=C/c1ccccc1Cl)Nc1n[nH]c(=S)s1 | 29 | 412 | 
C/C(=N\NC(=O)Nc1n[nH]c(=S)s1)c1ccc(Br)cc1 | 6.85 |  | 
O=C(NN=C1C(=O)Nc2ccc([N+](=O)[O-])cc21)Nc1nnc(S)s1 | 1.25 |  | 
COc1cc(/C=N/NC(=O)Nc2n[nH]c(=S)s2)ccc1O | 26 | 386 | 
O=C(N/N=C1\C(=O)Nc2ccccc21)Nc1n[nH]c(=S)s1 | 9.4 |  | 
NNC(=O)Nc1n[nH]c(=S)s1 | 9.3 |  | 
O=C(N/N=C/c1cccnc1)Nc1n[nH]c(=S)s1 | 5.05 |  | 
O=C(N/N=C/c1ccc([N+](=O)[O-])cc1)Nc1n[nH]c(=S)s1 | 10 |  | 

Continued by falling Ki [1], values first:

Ki [1] [µM] | Ki [2] [µM] | Ki [3] [µM] | Compound
24 | 433 | 223 | O=C(N/N=C/c1ccccc1[N+](=O)[O-])Nc1n[nH]c(=S)s1
23 | 354 |  | O=C(N/N=C/c1ccccc1)Nc1n[nH]c(=S)s1
22 | 360 |  | O=C(N/N=C/c1ccc(Br)cc1)Nc1n[nH]c(=S)s1
20 | 346 |  | COc1ccc(/C(C)=N/NC(=O)Nc2n[nH]c(=S)s2)cc1
10.1 | 236 |  | O=C(N/N=C/c1cccc(Br)c1)Nc1n[nH]c(=S)s1
8.55 |  | 144 | C/C(=N\NC(=O)Nc1n[nH]c(=S)s1)c1ccc(Cl)cc1
7.54 |  |  | C/C(=N\NC(=O)Nc1n[nH]c(=S)s1)c1ccc([N+](=O)[O-])cc1
7.53 |  |  | O=C(N/N=C/c1ccc(F)cc1)Nc1n[nH]c(=S)s1
7.44 |  |  | C/C(=N\NC(=O)Nc1n[nH]c(=S)s1)c1ccccc1
7.18 |  |  | O=C(NN=C1C(=O)Nc2ccc(Br)cc21)Nc1nnc(S)s1
